Assay: second and third wash supernates of 1×10^8 RBCs/mL
Conditions: human, 37°C, up to 24 hours

Substance	not cleaved
ILPWKWPWWPWRR-NH2	more than 90% recovered after 24 hours
RRGWALRLVLAY-NH2	more than 90% recovered after 24 hours

Source: paper PMC5659893 (2017)
